Literature values, collected in publication PMC10147685, “Safety, tolerability, and pharmacokinetics of Aurora kinase B inhibitor AZD2811: a phase 1 dose-finding study in patients with advanced solid tumours” (British Journal of Cancer, 2023).

Key:
[1] = tested on: advanced solid tumours; design: method as in PMID 22661287; conditions: cited from earlier work
[2] = tested on: patients with advanced solid tumours; design: method as in PMID 27349901; conditions: cited from earlier work

Compound | Objective responses [1] | Patients with SD [1] [%] | Objective responses [2] | Patients with SD ([2]; depending on the treatment schedule)
CCN(CCCOc1ccc2c(Nc3cc(CC(=O)Nc4cccc(F)c4)n[nH]3)ncnc2c1)CCOP(=O)(O)O [barasertib] | no objective responses | 23 |  | 
CC(C)NC(=O)[C@H]1CCC[C@H]1Nc1nc(Nc2ccc(C(=O)N(C)C3CCN(C)CC3)cc2)ncc1C(F)(F)F [BI 811283] |  |  | no objective responses | 30–33%
